According to publication PMC7718890 (Scientific Reports, 2020):
Values joined by “and” are separate entries in the source; they are usually repeats but may differ in a detail not shown here. Equal values may be shown once. Read-outs that look alike come from different tables or passages of the source.

Assays:
[1] = target: CarD·RNAP binding (CarD association with RPo)
[2] = Turbidity test (OD620) for aggregation; format: physicochemical
RNAP = settings: cited from earlier work

Chain of CarD·RNAP binding (CarD association with RPo) (P9WGY5 whole entry): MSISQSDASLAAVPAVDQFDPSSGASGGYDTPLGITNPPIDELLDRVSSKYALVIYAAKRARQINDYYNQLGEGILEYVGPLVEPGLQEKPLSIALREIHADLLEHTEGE
Chain of CarD·RNAP binding (CarD association with RPo) (P9WGI1 whole entry, further chain): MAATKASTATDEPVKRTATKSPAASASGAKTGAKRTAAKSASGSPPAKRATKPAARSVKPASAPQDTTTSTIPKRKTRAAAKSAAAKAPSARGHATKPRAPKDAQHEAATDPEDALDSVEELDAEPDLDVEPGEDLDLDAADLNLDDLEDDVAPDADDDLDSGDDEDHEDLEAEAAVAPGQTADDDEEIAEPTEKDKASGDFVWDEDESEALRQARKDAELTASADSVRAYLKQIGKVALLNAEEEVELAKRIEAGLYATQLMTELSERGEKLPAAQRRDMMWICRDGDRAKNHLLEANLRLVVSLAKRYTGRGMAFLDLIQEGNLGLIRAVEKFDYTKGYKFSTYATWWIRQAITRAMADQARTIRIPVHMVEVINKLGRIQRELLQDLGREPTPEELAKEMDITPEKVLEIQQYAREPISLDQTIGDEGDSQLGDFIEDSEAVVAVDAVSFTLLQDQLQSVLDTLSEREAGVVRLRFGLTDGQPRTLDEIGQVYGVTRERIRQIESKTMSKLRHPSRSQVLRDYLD
Chain of CarD·RNAP binding (CarD association with RPo) (P9WGY7 whole entry, further chain): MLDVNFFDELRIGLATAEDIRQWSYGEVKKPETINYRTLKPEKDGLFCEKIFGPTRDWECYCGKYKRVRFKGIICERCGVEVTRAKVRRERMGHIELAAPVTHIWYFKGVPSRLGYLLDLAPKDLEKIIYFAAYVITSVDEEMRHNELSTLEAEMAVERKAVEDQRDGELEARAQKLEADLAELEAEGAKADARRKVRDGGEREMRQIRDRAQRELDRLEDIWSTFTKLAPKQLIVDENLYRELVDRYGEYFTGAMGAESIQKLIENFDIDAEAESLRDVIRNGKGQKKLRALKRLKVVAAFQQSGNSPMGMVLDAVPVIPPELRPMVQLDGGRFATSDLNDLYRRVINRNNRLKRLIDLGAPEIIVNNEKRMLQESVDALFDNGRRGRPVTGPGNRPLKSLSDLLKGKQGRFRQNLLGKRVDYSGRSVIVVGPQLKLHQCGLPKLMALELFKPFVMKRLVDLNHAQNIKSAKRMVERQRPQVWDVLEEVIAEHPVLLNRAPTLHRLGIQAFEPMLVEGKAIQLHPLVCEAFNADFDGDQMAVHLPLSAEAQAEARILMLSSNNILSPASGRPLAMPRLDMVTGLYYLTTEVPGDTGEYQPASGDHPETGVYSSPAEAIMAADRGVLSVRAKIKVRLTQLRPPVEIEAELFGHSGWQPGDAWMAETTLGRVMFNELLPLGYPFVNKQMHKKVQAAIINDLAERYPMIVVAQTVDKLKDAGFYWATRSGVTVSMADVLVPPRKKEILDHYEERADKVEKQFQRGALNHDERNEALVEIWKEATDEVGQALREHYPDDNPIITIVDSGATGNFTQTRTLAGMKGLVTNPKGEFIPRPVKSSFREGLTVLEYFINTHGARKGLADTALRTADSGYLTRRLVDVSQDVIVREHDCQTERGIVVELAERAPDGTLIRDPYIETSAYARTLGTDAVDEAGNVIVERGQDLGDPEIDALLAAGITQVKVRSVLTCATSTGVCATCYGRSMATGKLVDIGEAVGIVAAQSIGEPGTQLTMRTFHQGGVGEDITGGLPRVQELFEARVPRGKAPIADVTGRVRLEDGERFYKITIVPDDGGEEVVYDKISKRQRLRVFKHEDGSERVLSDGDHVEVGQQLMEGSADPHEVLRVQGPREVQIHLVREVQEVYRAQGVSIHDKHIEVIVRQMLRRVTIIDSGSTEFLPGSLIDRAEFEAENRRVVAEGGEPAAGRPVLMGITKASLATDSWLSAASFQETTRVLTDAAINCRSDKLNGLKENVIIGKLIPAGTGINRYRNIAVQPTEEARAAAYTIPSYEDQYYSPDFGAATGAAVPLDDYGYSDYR
Chain of CarD·RNAP binding (CarD association with RPo) (P9WGY9 whole entry, further chain): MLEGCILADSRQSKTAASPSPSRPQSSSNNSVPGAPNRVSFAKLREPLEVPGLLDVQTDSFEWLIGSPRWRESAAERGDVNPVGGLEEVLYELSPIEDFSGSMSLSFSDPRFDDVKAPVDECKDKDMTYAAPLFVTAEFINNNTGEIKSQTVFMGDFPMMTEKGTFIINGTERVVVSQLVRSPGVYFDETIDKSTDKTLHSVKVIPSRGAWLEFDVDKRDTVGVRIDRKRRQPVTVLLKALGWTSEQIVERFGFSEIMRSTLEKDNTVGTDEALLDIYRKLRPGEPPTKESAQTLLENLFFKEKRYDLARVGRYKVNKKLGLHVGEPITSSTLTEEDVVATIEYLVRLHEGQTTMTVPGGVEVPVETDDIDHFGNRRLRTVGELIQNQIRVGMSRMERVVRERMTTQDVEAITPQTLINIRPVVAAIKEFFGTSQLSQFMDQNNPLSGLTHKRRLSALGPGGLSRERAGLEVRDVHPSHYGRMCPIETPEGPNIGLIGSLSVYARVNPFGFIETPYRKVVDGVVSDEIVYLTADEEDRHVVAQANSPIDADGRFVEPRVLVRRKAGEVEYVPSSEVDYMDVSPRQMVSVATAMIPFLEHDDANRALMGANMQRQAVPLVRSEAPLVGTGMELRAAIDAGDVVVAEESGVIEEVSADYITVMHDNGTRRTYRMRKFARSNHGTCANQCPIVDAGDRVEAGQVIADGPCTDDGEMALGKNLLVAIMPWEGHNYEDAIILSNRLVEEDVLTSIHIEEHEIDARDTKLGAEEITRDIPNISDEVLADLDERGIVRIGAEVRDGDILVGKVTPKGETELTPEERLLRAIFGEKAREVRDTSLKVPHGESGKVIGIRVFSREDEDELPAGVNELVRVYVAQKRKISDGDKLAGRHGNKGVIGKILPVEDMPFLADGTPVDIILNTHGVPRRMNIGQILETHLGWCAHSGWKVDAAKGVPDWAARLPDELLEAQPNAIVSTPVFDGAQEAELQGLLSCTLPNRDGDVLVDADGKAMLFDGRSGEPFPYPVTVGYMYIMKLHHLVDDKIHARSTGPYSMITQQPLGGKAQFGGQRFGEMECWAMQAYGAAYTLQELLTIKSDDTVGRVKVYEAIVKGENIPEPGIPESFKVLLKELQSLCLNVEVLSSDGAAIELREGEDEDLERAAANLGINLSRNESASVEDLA
Chain of CarD·RNAP binding (CarD association with RPo) (P9WGZ1 whole entry, further chain): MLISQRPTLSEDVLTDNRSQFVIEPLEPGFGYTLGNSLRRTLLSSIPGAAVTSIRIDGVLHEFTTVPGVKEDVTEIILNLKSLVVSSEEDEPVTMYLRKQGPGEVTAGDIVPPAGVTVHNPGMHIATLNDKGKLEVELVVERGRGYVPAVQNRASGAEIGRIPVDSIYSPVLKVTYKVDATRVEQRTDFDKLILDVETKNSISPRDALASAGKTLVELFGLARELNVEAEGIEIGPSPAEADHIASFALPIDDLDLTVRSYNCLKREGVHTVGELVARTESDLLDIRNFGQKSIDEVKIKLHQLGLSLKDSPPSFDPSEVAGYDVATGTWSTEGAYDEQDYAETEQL

SMILES | IC50 [1] | Concentration above which compound is prone to aggregation (turbidity curve) [2] | IC50 (RNAP; read-out: IC50 In Vitro Transcription +RbpA) | IC50 (RNAP; read-out: IC50 In Vitro Transcription -RbpA)
Cc1cc2c(NC(=O)Nc3ccccc3)cccc2nn1 [CCG-237488] | 20 µM | – | – | –
O=C(O)c1ccc(-c2nc3ccc(-c4ccc5nc(-c6ccc(C(=O)O)cc6)[nH]c5c4)cc3[nH]2)cc1 [CCG-249580] | 32 µM and 45 µM | higher than 34 µM | – | –
CCc1c(Cl)c(O)c(Cl)c(O)c1C(=O)O[C@H]1[C@H](O)[C@H](OC)[C@H](OC/C2=C\C=C\C[C@H](O)/C(C)=C/[C@H](CC)[C@@H](O[C@@H]3OC(C)(C)[C@@H](OC(=O)C(C)C)[C@H](O)[C@@H]3O)/C(C)=C/C(C)=C/C[C@@H]([C@@H](C)O)OC2=O)O[C@@H]1C [Fidaxomicin] | – | – | 0.21 µM | 7 µM
